Values of other authors, collected in US20010049447A1, “Mibefradil analogues and their use” (priority 2000, published 2001).

Test system: fructose fed rats

COCC(=O)O[C@]1(CCN(C)CCCc2nc3ccccc3[nH]2)CCc2cc(F)ccc2[C@@H]1C(C)C.Cl.Cl [mibefradil, Methoxyacetic acid 2(S)-[2-[N-[3-(2-benzimidazolyl)propyl]-N-methylamino]ethyl]-6-fluoro-1(S)-isopropyl-1,2,3,4-tetrahydro-2-naphthyl ester dihydrochloride]
blood pressure: decrease | hyperinsulinemia: decrease
